Results as given in PubChem BioAssay (NCI).
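How tested: cells in 96-well plates exposed to compound for 48 hours at five concentrations. Here, GI50 denotes the concentration required for 50% inhibition of growth. The concentration for full growth arrest is given as TGI.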

Legend:
Assay in all cases: growth of human tumour cells (NCI), 48 h
[1] = test system: 786-0 renal
[2] = test system: A498 renal
[3] = test system: A549 NSCLC
[4] = test system: ACHN renal
[5] = test system: BT-549 breast
[6] = test system: CAKI-1 renal
[7] = test system: CCRF-CEM leukemia
[8] = test system: COLO 205 colon
[9] = test system: DU-145 prostate
[10] = test system: EKVX NSCLC
[11] = test system: HCC-2998 colon
[12] = test system: HCT-116 colon
[13] = test system: HCT-15 colon
[14] = test system: HL-60(TB) leukemia
[15] = test system: HOP-62 NSCLC
[16] = test system: HOP-92 NSCLC
[17] = test system: HS 578T breast
[18] = test system: HT29 colon
[19] = test system: IGROV1 ovarian
[20] = test system: K-562 leukemia
[21] = test system: KM12 colon
[22] = test system: LOX IMVI melanoma
[23] = test system: M14 melanoma
[24] = test system: MALME-3M melanoma
[25] = test system: MCF7 breast
[26] = test system: MDA-MB-231 breast
[27] = test system: MDA-MB-435
[28] = test system: MDA-MB-468 breast
[29] = test system: MOLT-4 leukemia
[30] = test system: NCI-H226 lung

O=c1cc(-c2ccccc2)oc2cc(OCCCC[P+](c3ccccc3)(c3ccccc3)c3ccccc3)cc(O)c12
GI50 [1]: 1860 nM | TGI [1]: 3840 nM | GI50 [2]: 2030 nM | TGI [2]: 5590 nM | GI50 [3]: 2820 nM | TGI [3]: 16500 nM | GI50 [4]: 996 nM | TGI [4]: 2390 nM | GI50 [5]: 542 nM | TGI [5]: 1740 nM | GI50 [6]: 1630 nM | TGI [6]: 4340 nM | GI50 [7]: 826 nM | TGI [7]: 4750 nM | GI50 [8]: 1470 nM | TGI [8]: 3010 nM | GI50 [9]: 813 nM | TGI [9]: 2970 nM | GI50 [10]: 494 nM | TGI [10]: 1860 nM | GI50 [11]: 412 nM | TGI [11]: 1540 nM | GI50 [12]: 863 nM | TGI [12]: 2120 nM | GI50 [13]: 1020 nM | TGI [13]: 2480 nM | GI50 [14]: 246 nM | TGI [14]: 1820 nM | GI50 [15]: 1420 nM | TGI [15]: 2870 nM | GI50 [16]: 292 nM | TGI [16]: 1130 nM | GI50 [17]: 1320 nM | TGI [17]: 4270 nM | GI50 [18]: 2600 nM | TGI [18]: 11300 nM | GI50 [19]: 785 nM | TGI [19]: 2360 nM | GI50 [20]: 326 nM | TGI [20]: > 100000 nM | GI50 [21]: 738 nM | TGI [21]: 2130 nM | GI50 [22]: 1130 nM | TGI [22]: 2360 nM | GI50 [23]: 408 nM | TGI [23]: 1540 nM | GI50 [24]: 397 nM | TGI [24]: 1190 nM | GI50 [25]: 499 nM | TGI [25]: 2280 nM | GI50 [26]: 1070 nM | TGI [26]: 2570 nM | GI50 [27]: 356 nM | TGI [27]: 1390 nM | GI50 [28]: 148 nM | TGI [28]: 433 nM | GI50 [29]: 771 nM | TGI [29]: 3240 nM | GI50 [30]: 1500 nM
